Measured values reported in US6358885B1, “Substituted phenylheterocyclic herbicides” (Mississippi State University, priority 1992, dated 2002).

Columns and labels:
rape = experiment: Test B preemergence/postemergence greenhouse plant response rating 0 to 10; format: in vivo, Brassica napus; details: 0 to 10 scale
Procedure, shortened: (§1)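 Test chemicals were sprayed onto freshly planted seed and, concurrently, onto young plants between the one and four leaf stage. After a twelve- to sixteen-day greenhouse period, each species was visually compared with untreated controls.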

umbrella sedge = experiment: Test C flood test plant response rating 0 to 100; format: in vivo, Cyperus difformis
Procedure, shortened: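 Compounds in non-phytotoxic solvent applied preemergence to sandy loam one day after planting, postemergence at the 1–4 leaf stage, or to ~2.5 cm floodwater over silt loam.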

crabgrass = experiment: Test B preemergence/postemergence greenhouse plant response rating 0 to 10; format: in vivo, Digitaria spp.; details: 0 to 10 scale
Procedure, shortened: as §1

chickweed [1] = experiment: as above; format: in vivo, Stellaria media; details: 0 to 10 scale
Procedure, shortened: as §1

wild buckwheat = experiment: Test C preemergence/postemergence greenhouse plant response rating 0 to 100; format: in vivo, Polygonum convolvulus
Procedure, shortened: (§2)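 Compounds in non-phytotoxic solvent went onto sandy loam before emergence (seeded one day earlier) or onto plants at the one-to-four leaf stage. Duck salad was treated via flood water (~2.5 cm, maintained) over silt loam.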

wheat = experiment: Test B preemergence/postemergence greenhouse plant response rating 0 to 10; format: in vivo, Triticum aestivum; details: 0 to 10 scale
Procedure, shortened: as §1

corn = experiment: as above; format: in vivo, Zea mays; details: 0 to 10 scale
Procedure, shortened: as §1

soybean [2] = experiment: as above; format: in vivo, Glycine max; details: 0 to 10 scale
Procedure, shortened: as §1

sorghum = experiment: as above; format: in vivo, Sorghum bicolor; details: 0 to 10 scale
Procedure, shortened: as §1

soybean [3] = experiment: Test C preemergence/postemergence greenhouse plant response rating 0 to 100; format: in vivo, Glycine max
Procedure, shortened: as §2

morningglory [4] = experiment: as above; format: in vivo, Ipomoea hederacea; details: for Plant response rating, Morningglory: 62 g/ha, 0 to 100 scale
Procedure, shortened: as §2

chickweed [5] = experiment: as above; format: in vivo, Stellaria media; details: POSTEMERGENCE
Procedure, shortened: as §2

bedstraw = experiment: as above; format: in vivo, Galium aparine; details: for Plant response rating, Bedstraw: 62 g/ha, 0 to 100 scale
Procedure, shortened: as §2

barley = experiment: as above; format: in vivo, Hordeum vulgare; details: for Plant response rating Barley Igri: 62 g/ha, 0 to 100 scale
Procedure, shortened: as §2

morningglory [6] = experiment: Test B preemergence/postemergence greenhouse plant response rating 0 to 10; format: in vivo, Ipomoea hederacea; details: 0 to 10 scale
Procedure, shortened: as §1

wild oat = experiment: as above; format: in vivo, Avena fatua; details: 0 to 10 scale
Procedure, shortened: as §1

downy brome = experiment: Test C preemergence/postemergence greenhouse plant response rating 0 to 100; format: in vivo, Bromus tectorum; details: for Plant response rating Downy Brome: 62 g/ha, 0 to 100 scale
Procedure, shortened: as §2

purple nutsedge = experiment: Test B preemergence/postemergence greenhouse plant response rating 0 to 10; format: in vivo, Cyperus rotundus; details: 0 to 10 scale
Procedure, shortened: as §1

[7] = POSTEMERGENCE, 62 g/ha, 0 to 100 scale

CC(C)Oc1cc(-c2nn3c(c2Br)CCCC3)c(F)cc1Cl [Compound 38]
Plant response rating, Rape (rape; POSTEMERGENCE, Rate 50 g/ha): 8
Plant response rating, Rape (rape; PREEMERGENCE, Rate 50 g/ha): 8
Plant response rating, Rape (rape; Rate 200 g/ha, POSTEMERGENCE): 10
Plant response rating, Rape (rape; Rate 200 g/ha, PREEMERGENCE): 8
Plant response rating (0 to 100), Umbrella sedge (umbrella sedge; POSTEMERGENCE section, flood test, Rate 1 g/ha): 0
Plant response rating (0 to 100), Umbrella sedge (umbrella sedge; POSTEMERGENCE section, flood test, Rate 4 g/ha): 0
Plant response rating (0 to 100), Umbrella sedge (umbrella sedge; Rate 16 g/ha, under POSTEMERGENCE head (flood test species)): 20
Plant response rating Umbrella sedge (umbrella sedge; flood test species listed under POSTEMERGENCE, 62 g/ha, 0 to 100 scale): 50
Plant response rating, Crabgrass (crabgrass; POSTEMERGENCE, Rate 50 g/ha): 5
Plant response rating, Crabgrass (crabgrass; POSTEMERGENCE, Rate 200 g/ha): 6
Plant response rating, Crabgrass (crabgrass; PREEMERGENCE, Rate 50 g/ha): 0
Plant response rating, Crabgrass (crabgrass; Rate 200 g/ha, PREEMERGENCE): 8
Plant response rating, Chickweed (chickweed [1]; POSTEMERGENCE, Rate 50 g/ha): 9
Plant response rating, Chickweed (chickweed [1]; POSTEMERGENCE, Rate 200 g/ha): 10
Plant response rating, Chickweed (chickweed [1]; PREEMERGENCE, Rate 50 g/ha): 0
Plant response rating, Chickweed (chickweed [1]; Rate 200 g/ha, PREEMERGENCE): 0
Plant response rating, Wild buckwheat (wild buckwheat; [7]): 100
Plant response rating (0 to 100), Wild buckwheat (wild buckwheat; POSTEMERGENCE, Rate 1 g/ha): 40
Plant response rating (0 to 100), Wild buckwheat (wild buckwheat; POSTEMERGENCE, Rate 4 g/ha): 100
Plant response rating (0 to 100), Wild buckwheat (wild buckwheat; PREEMERGENCE, Rate 1 g/ha): 0
Plant response rating (0 to 100), Wild buckwheat (wild buckwheat; PREEMERGENCE, Rate 4 g/ha): 0
Plant response rating (0 to 100), Wild buckwheat (wild buckwheat; Rate 16 g/ha, POSTEMERGENCE): 100
Plant response rating (0 to 100), Wild buckwheat (wild buckwheat; Rate 16 g/ha, PREEMERGENCE): 20
Plant response rating, Wheat (wheat; POSTEMERGENCE, Rate 50 g/ha): 4
Plant response rating, Wheat (wheat; PREEMERGENCE, Rate 50 g/ha): 0
Plant response rating, Wheat (wheat; Rate 200 g/ha, POSTEMERGENCE): 6
Plant response rating, Wheat (wheat; Rate 200 g/ha, PREEMERGENCE): 2
Plant response rating, Corn (corn; POSTEMERGENCE, Rate 50 g/ha): 4
Plant response rating, Corn (corn; POSTEMERGENCE, Rate 200 g/ha): 5
Plant response rating, Corn (corn; PREEMERGENCE, Rate 50 g/ha): 0
Plant response rating, Corn (corn; Rate 200 g/ha, PREEMERGENCE): 2
Plant response rating, Soybean (soybean [2]; POSTEMERGENCE, Rate 50 g/ha): 5
Plant response rating, Soybean (soybean [2]; PREEMERGENCE, Rate 50 g/ha): 0
Plant response rating, Soybean (soybean [2]; Rate 200 g/ha, POSTEMERGENCE): 7
Plant response rating, Soybean (soybean [2]; Rate 200 g/ha, PREEMERGENCE): 4
Plant response rating, Sorghum (sorghum; POSTEMERGENCE, Rate 50 g/ha): 5
Plant response rating, Sorghum (sorghum; PREEMERGENCE, Rate 50 g/ha): 0
Plant response rating, Sorghum (sorghum; Rate 200 g/ha, POSTEMERGENCE): 6
Plant response rating, Sorghum (sorghum; Rate 200 g/ha, PREEMERGENCE): 1
Plant response rating, Soybean (soybean [3]; [7]): 60
Plant response rating (0 to 100), Soybean (soybean [3]; POSTEMERGENCE, Rate 1 g/ha): 20
Plant response rating (0 to 100), Soybean (soybean [3]; POSTEMERGENCE, Rate 4 g/ha): 20
Plant response rating (0 to 100), Soybean (soybean [3]; PREEMERGENCE, Rate 1 g/ha): 0
Plant response rating (0 to 100), Soybean (soybean [3]; PREEMERGENCE, Rate 4 g/ha): 0
Plant response rating (0 to 100), Soybean (soybean [3]; Rate 16 g/ha, POSTEMERGENCE): 40
Plant response rating (0 to 100), Soybean (soybean [3]; Rate 16 g/ha, PREEMERGENCE): 0
Plant response rating, Morningglory (morningglory [4]; POSTEMERGENCE): 95
Plant response rating (0 to 100), Morningglory (morningglory [4]; POSTEMERGENCE, Rate 1 g/ha): 20
Plant response rating (0 to 100), Morningglory (morningglory [4]; POSTEMERGENCE, Rate 4 g/ha): 30
Plant response rating, Morningglory (morningglory [4]; PREEMERGENCE): 20
Plant response rating (0 to 100), Morningglory (morningglory [4]; PREEMERGENCE, Rate 1 g/ha): 0
Plant response rating (0 to 100), Morningglory (morningglory [4]; PREEMERGENCE, Rate 4 g/ha): 0
Plant response rating (0 to 100), Morningglory (morningglory [4]; Rate 16 g/ha, POSTEMERGENCE): 95
Plant response rating (0 to 100), Morningglory (morningglory [4]; Rate 16 g/ha, PREEMERGENCE): 0
Plant response rating, Chickweed (chickweed [5]; 62 g/ha, 0 to 100 scale): 30
Plant response rating (0 to 100), Chickweed (chickweed [5]; Rate 1 g/ha): 0
Plant response rating (0 to 100), Chickweed (chickweed [5]; Rate 4 g/ha): 10
Plant response rating (0 to 100), Chickweed (chickweed [5]; Rate 16 g/ha): 20
Plant response rating, Bedstraw (bedstraw; POSTEMERGENCE): 90
Plant response rating (0 to 100), Bedstraw (bedstraw; POSTEMERGENCE, Rate 1 g/ha): 20
Plant response rating, Bedstraw (bedstraw; PREEMERGENCE): 50
Plant response rating (0 to 100), Bedstraw (bedstraw; PREEMERGENCE, Rate 1 g/ha): 0
Plant response rating (0 to 100), Bedstraw (bedstraw; PREEMERGENCE, Rate 4 g/ha): 0
Plant response rating (0 to 100), Bedstraw (bedstraw; Rate 4 g/ha, POSTEMERGENCE): 50
Plant response rating (0 to 100), Bedstraw (bedstraw; Rate 16 g/ha, POSTEMERGENCE): 50
Plant response rating (0 to 100), Bedstraw (bedstraw; Rate 16 g/ha, PREEMERGENCE): 20
Plant response rating Barley Igri (barley; POSTEMERGENCE): 50
Plant response rating (0 to 100), Barley Igri (barley; POSTEMERGENCE, Rate 1 g/ha): 10
Plant response rating Barley Igri (barley; PREEMERGENCE): 0
Plant response rating (0 to 100), Barley Igri (barley; PREEMERGENCE, Rate 1 g/ha): 0
Plant response rating (0 to 100), Barley Igri (barley; PREEMERGENCE, Rate 4 g/ha): 0
Plant response rating (0 to 100), Barley Igri (barley; Rate 4 g/ha, POSTEMERGENCE): 30
Plant response rating (0 to 100), Barley Igri (barley; Rate 16 g/ha, POSTEMERGENCE): 40
Plant response rating (0 to 100), Barley Igri (barley; Rate 16 g/ha, PREEMERGENCE): 0
Plant response rating, Morningglory (morningglory [6]; POSTEMERGENCE, Rate 50 g/ha): 8
Plant response rating, Morningglory (morningglory [6]; PREEMERGENCE, Rate 50 g/ha): 0
Plant response rating, Morningglory (morningglory [6]; Rate 200 g/ha, POSTEMERGENCE): 9
Plant response rating, Morningglory (morningglory [6]; Rate 200 g/ha, PREEMERGENCE): 4
Plant response rating, Wild oat (wild oat; POSTEMERGENCE, Rate 50 g/ha): 3
Plant response rating, Wild oat (wild oat; PREEMERGENCE, Rate 50 g/ha): 0
Plant response rating, Wild oat (wild oat; Rate 200 g/ha, POSTEMERGENCE): 5
Plant response rating Downy Brome (downy brome; POSTEMERGENCE): 40
Plant response rating (0 to 100), Downy Brome (downy brome; POSTEMERGENCE, Rate 1 g/ha): 10
Plant response rating (0 to 100), Downy Brome (downy brome; POSTEMERGENCE, Rate 4 g/ha): 20
Plant response rating Downy Brome (downy brome; PREEMERGENCE): 0
Plant response rating (0 to 100), Downy Brome (downy brome; PREEMERGENCE, Rate 1 g/ha): 0
Plant response rating (0 to 100), Downy Brome (downy brome; PREEMERGENCE, Rate 4 g/ha): 0
Plant response rating (0 to 100), Downy Brome (downy brome; Rate 16 g/ha, POSTEMERGENCE): 30
Plant response rating (0 to 100), Downy Brome (downy brome; Rate 16 g/ha, PREEMERGENCE): 0
Plant response rating, Nutsedge (purple nutsedge; POSTEMERGENCE, Rate 50 g/ha): 3
Plant response rating, Nutsedge (purple nutsedge; PREEMERGENCE, Rate 50 g/ha): 0
Plant response rating, Nutsedge (purple nutsedge; Rate 200 g/ha, POSTEMERGENCE): 4
Plant response rating, Nutsedge (purple nutsedge; Rate 200 g/ha, PREEMERGENCE): 0
